According to paper PMC6152209, “Synthesis, Characterization and In Vitro Evaluation of a Novel Glycol Chitosan-EDTA Conjugate to Inhibit Aminopeptidase-Mediated Degradation of Thymopoietin Oligopeptides” (Molecules : A Journal of Synthetic Chemistry and Natural …, 2017):
Where two headings read alike, the source gives them in different places. Blank lines part the entries; values can stand above or below the molecule they belong to. Residues, ends and D or L forms follow the SMILES beside them.

What was measured:
[1] = cobalt ion chelation-mediated fluorescence recovery of calcein; type: physicochemical; conditions: calcein 0.0625 µg/mL, calcein:cobalt dichloride 1:1 molar, normalized maximum fluorescence emission F/F0, excitation 490 nm
Source text: It is well known that calcein fluorescence can be strongly quenched by cobalt ions at physiological pH, while removal of cobalt ion from the complex by EDTA-mediated chelation will lead to a significant increase in fluorescence intensity. Thus, the chelating capacity of the resultant conjugate can be determined by measuring the cobalt ion-chelating-mediated fluorescence recovery of calcein. […] The excitation wavelength of calcein was set at 490 and its emission was monitored in the range of 500–650 nm. The slits of excitation and emission were set at 5 and 3 nm, respectively. All background effects were subtracted. In addition, the same experiment was done in the presence of EDTA.

leucine aminopeptidase [2] = molecular target: T1, leucine aminopeptidase (Sus scrofa, UniProt P15145); conditions: pH 7
T1 sequence (P15145 1-963): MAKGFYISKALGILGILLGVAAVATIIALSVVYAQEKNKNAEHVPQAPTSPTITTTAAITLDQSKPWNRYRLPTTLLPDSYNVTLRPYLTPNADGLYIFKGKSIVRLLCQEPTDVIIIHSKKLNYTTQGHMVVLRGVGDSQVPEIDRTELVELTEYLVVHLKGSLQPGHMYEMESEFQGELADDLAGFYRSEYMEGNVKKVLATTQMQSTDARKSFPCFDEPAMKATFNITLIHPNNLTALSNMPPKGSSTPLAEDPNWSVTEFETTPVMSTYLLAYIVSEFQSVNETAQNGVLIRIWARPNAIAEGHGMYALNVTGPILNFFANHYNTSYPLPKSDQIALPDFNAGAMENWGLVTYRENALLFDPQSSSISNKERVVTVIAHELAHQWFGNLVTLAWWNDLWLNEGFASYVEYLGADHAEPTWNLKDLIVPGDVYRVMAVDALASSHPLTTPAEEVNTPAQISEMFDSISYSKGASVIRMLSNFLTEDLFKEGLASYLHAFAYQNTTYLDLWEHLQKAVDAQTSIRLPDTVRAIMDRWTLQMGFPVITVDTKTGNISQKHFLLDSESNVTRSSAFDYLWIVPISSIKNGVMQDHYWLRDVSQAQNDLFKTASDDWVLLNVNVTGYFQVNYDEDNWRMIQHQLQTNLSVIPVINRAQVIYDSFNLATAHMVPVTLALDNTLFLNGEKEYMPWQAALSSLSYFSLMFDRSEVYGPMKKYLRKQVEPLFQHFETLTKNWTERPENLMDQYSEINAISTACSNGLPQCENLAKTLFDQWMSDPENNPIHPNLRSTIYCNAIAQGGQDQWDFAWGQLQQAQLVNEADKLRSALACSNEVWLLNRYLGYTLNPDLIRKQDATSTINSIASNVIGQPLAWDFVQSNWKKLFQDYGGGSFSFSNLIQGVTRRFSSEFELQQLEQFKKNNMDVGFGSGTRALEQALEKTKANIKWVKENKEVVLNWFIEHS
Experimental: (§1) After a 30-min enzymatic activation, the stock solutions of three thymopoietin oligopeptides were added into the above solution and made the final concentration of peptides at 0.1 mM. At specified time intervals after adding peptide, 100 µL aliquots were sampled and diluted with an equal volume of 1 M perchloric acid incubated in an ice bath to stop reaction. Meanwhile, a 100 mL aliquot of the abovementioned buffer was added to the incubation medium. […] All experiments were replicated at least three times.
(§2) Cldeg was determined by linear regression analysis from plots of ΣM versus the AUC at different time points [3, 11].

leucine aminopeptidase [3] = molecular target: T1, leucine aminopeptidase; assay: leucine aminopeptidase-mediated degradation of thymopoietin oligopeptides (degradation kinetics and clearance); conditions: peptide 0.1 mM, LAP 0.01 U/mL, Krebs phosphate buffer pH 7.0, 37 °C, RP-HPLC, Cldeg from ΣM versus AUC, at least three replicates
Experimental: as §1, §2

Compound: O=C(O)CN(CCN(CC(=O)O)CC(=O)O)CC(=O)O [EDTA, ethylene diamine tetraacetic acid]
EDTA group concentration above which the calcein fluorescence plateau was reached (almost complete removal of cobalt ions from the calcein/cobalt ion complex) [1]: higher than 0.67 µM

order of susceptibility to leucine aminopeptidase (degradation clearance) (leucine aminopeptidase [2]): TP4 > TP5 > TP3
Compound: N=C(N)NCCC[C@H](N)C(=O)N[C@@H](CCCCN)C(=O)N[C@@H](CC(=O)O)C(=O)O [TP3, Thymotrinan] (H-Arg-Lys-Asp-OH)

order of susceptibility to leucine aminopeptidase (degradation clearance) (leucine aminopeptidase [3]): TP4 > TP5 > TP3
Compound: CC(C)[C@H](NC(=O)[C@H](CC(=O)O)NC(=O)[C@H](CCCCN)NC(=O)[C@@H](N)CCCNC(=N)N)C(=O)O [TP4, thymocartin] (H-RKDV-OH)
